Experimental data published in patent US20250204528A1, “USE OF 2-AMINO-3-INDOLYL BUTYRIC ACID OR 3-METHYLPYRROLIDINE-2-CARBOXYLIC ACID AS PLANT IMMUNITY ELICITOR” (NANJING TIANNONG BIOTECHNOLOGY CO., LTD, priority 2021, published 2025).
Values joined by “and” are separate entries in the source; they are usually repeats but may differ in a detail not shown here. Equal values may be shown once.

Columns and labels:
Type in all cases: in vivo
ryegrass = test: Ryegrass under high temperature stress; design: Heat damage index: scale not given here; conditions: for Heat damage index: 45° C. 12 h, recovery 7 d; for Heat damage index of the ryegrass decreased: vs control group
Method: 2-amino-3-indolyl butyric acid was dissolved in distilled water and gradiently diluted with distilled water to obtain solutions of 1 nm, 10 nm, 100 nm and 1,000 nm. A blank control was additionally set. Meanwhile, 0.02% Tween 20 was added as a surfactant. Each concentration was set to 4 replicates while a room temperature blank control was set. Ryegrass seeds were weighed at 0.8 g per pot, sown in a pot with the diameter of 8.5 cm and planted in a greenhouse at 25° C. with the humidity of 60%-70% and the light intensity of 200 μmolm^−2s^−1 (12 h light/12 h dark). After 7 d of growth, the ryegrass was treated by spraying the 2-amino-3-indolyl butyric acid solution on the leaf surfaces twice for 24 h. 24 h after the second spraying, the ryegrass was transferred to an illumination incubator at 45° C. for a high temperature stress treatment for 12 h. The plants were taken out and transferred to the greenhouse at 25° C. for recovery for 7 d. The damage conditions of the plants were observed and counted, and the heat damage grades were calculated. The heat damage grading standard was shown in table 8 and a calculation formula of the heat damage index was as follows.

[1] = system: tea trees (Baiye 1 cutting seedlings); test: Tea tree under low temperature stress; conditions: for Cold damage index (%): 24 h at −4° C., recovery 3 d; for PIABS: after 24 h at −4° C.; for Cold damage index reduced by / PIABS of the tea leaves improved by: vs control
Method: The test tea trees were Baiye 1 cutting seedlings.
The tea seedlings with consistent growth vigor were selected to be transplanted into a plastic pot with the diameter of 18 cm and placed in a greenhouse at 25° C. and with the humidity of 60%-70% to be adapted for growing for about one week for the experiment. Concentrations at 0 nm, 1 nm, 10 nm, 100 nm and 1,000 nm were set in the experiment. Meanwhile, 0.02% Tween 20 was added as a surfactant. The spraying treatment was the same as that of the ryegrass in example 1. A low temperature stress was performed for 24 h at −4° C. The tea seedlings after the stress was finished were taken out and subjected to a dark treatment at normal temperature for 30 min. The chlorophyll fluorescences of leaves at the tops of the tea seedlings were measured by using the plant efficiency Handy-PEA. Then the tea seedlings were placed in the greenhouse at 25° C. for recovery for 3 d. The cold damage conditions were observed, counted and graded. The cold damage index counting and grading standard was shown in table 13 and a calculation formula was as follows.

[2] = system: Pseudomonas syringae PstDC3000; test: Induction of Arabidopsis thaliana against infection by Pseudomonas syringae; conditions: for Disease index reduced by / Number of the bacteria in each milligram of the leaves reduced by: compared with blank control; for CFU (mg), number of bacteria in each milligram of the leaves / Disease index: 3 d after inoculation
Method: 2-amino-3-indolyl butyric acid was dissolved in sterile water and gradiently diluted with sterile water to obtain solutions of 100 nm, 1,000 nm and 10,000 nm. A blank control was additionally set. Meanwhile, 0.02% Tween 20 was added as a surfactant. Pseudomonas syringae PstDC3000 was coated on an LB plate and cultured at 28° C. for 48 h; monoclonal colonies were selected, inoculated into a 50-mL centrifuge tube containing 2 mL of a culture medium, and cultured on a shaking table at 28° C. and 250 rpm, the change of an OD600 value of the bacterial liquid was monitored every 1-2 h, and the culture of the bacteria was stopped before the OD600 value reached 0.8; 1 mL of the bacterial liquid was transferred to a sterile 1.5-mL centrifuge tube for centrifuging at 8,000 rpm for 2 min and the precipitate was collected; the supernatant was removed, the precipitate was washed 3 times with 10 mM of magnesium chloride and centrifuged, and finally the PstDC3000 was resuspended in 10 mM of magnesium chloride enable the OD600 value to reach […] for late use. Arabidopsis thaliana seeds were soaked in 75% alcohol for 3 min, washed with sterile water for 4 times and seeded in a culture dish containing ½ MS culture medium with 12 seeds sown on each culture dish. The ½ MS culture dish carrying the seeds were vernalized at 4° C. for 3 d to break dormancy and then placed in a culture room at 22° C. and the illumination intensity of 100 μEm^−2s^−1 (16 h light/8 h dark). When the seedlings grew for 2 weeks, 2-amino-3-indolyl butyric acid at different concentrations were slowly poured into the culture dish until the whole Arabidopsis thaliana seedlings were submerged for 2-3 min, then the treatment solution was completely poured from the culture dish, and the treatment was performed once every other 24 h for a total of 2 times. The PstDC3000 suspension (OD600=0.01) was inoculated to the Arabidopsis thaliana leaves by using the same submerging method 24 h after the 2nd treatment, and then the culture dish was sealed by a medical breathable adhesive plaster after the inoculation and placed in the culture room for continuous culture. After 3 d, the number of the bacteria subjected to different treatments was determined, the disease condition of the Arabidopsis thaliana was observed, and the disease indexes were calculated by using the same calculation formula as that in example 2.
Grading standard of diseases caused by PstDC3000 (taking leaves as units): • grade 0: the leaf surfaces were free of disease spots; • grade 1: the area of the disease spots accounted for 0%-10% of that of the whole leaves; • grade 2: the area of the disease spots accounted for 10%-25% of that of the whole leaves; • grade 3: the area of the disease spots accounted for 25%-50% of that of the whole leaves; • grade 4: the area of the disease spots accounted for 50%-75% of that of the whole leaves; and • grade 5: the area of the disease spots accounted for 75%-100% of that of the whole leaves.

[3] = treatment concentration 1,000 nm
[4] = treatment concentration 10,000 nm

Compound | Heat damage index (ryegrass; 1 nm) | Heat damage index (ryegrass; 10 nm) | Heat damage index (ryegrass; 100 nm) | Heat damage index (ryegrass; 1,000 nm) | Heat damage index of the ryegrass decreased (ryegrass; 1,000 nm) [%] | Cold damage index (%) ([1]; 1 nm) | PIABS ([1]; 1 nm) | Cold damage index (%) ([1]; 10 nm) | PIABS ([1]; 10 nm) [c] | Cold damage index (%) ([1]; 100 nm) | PIABS ([1]; 100 nm) | Cold damage index (%) ([1]; 1,000 nm) | PIABS ([1]; 1,000 nm) [a] | Cold damage index reduced by ([1]; 1,000 nm) [%] | PIABS of the tea leaves improved by ([1]; 1,000 nm) [%] | Disease index reduced by ([2]; 100 nm) [%] | Number of the bacteria in each milligram of the leaves reduced by ([2]; 100 nm) [%] | Disease index reduced by ([2]; 1,000 nm) [%] | Number of the bacteria in each milligram of the leaves reduced by ([2]; 1,000 nm) [%] | Disease index reduced by ([2]; 10,000 nm) [%] | further results
CC1CCNC1C(=O)O (stereo not shown) [3-methylpyrrolidine-2-carboxylic acid] | 57 | 50 | 38 | 20 | 68 | 47 | 23.01 ± 0.02 | 43 | 29.65 ± 1.81 | 34 | 35.01 ± 0.27b | 27 | 41.07 ± 0.31 | 48 | 138 | 41.13 | 70.78 | 52.47 | 80.90 | 72.69 | Number of the bacteria in each milligram of the leaves reduced by ([2]; 10,000 nm): 94.92% and 94.90%; CFU (mg), number of bacteria in each milligram of the leaves ([2]; treatment concentration 100 nm): 9.41 × 10^5 CFU (mg); Disease index ([2]; treatment concentration 100 nm): 50.14 ± 1.54b; CFU (mg), number of bacteria in each milligram of the leaves [2, 3]: 6.15 × 10^5 CFU (mg); Disease index [2, 3]: 40.48 ± 0.17c; CFU (mg), number of bacteria in each milligram of the leaves [2, 4]: 1.64×10^5 CFU (mg)
CC(c1c[nH]c2ccccc12)C(N)C(=O)O (stereo not shown) | 61 | 57 | 43 | 25 | 65 | 52 | 26.3 ± 0.04 | 45 | 30.10 ± 1.70 | 35 | 36.51 ± 3.14ab | 28 | 39.36 ± 2.15 | 40 | 52 | 51.25 | 76.75 | 53.92 | 80.97 | 64.42 | Number of the bacteria in each milligram of the leaves reduced by ([2]; 10,000 nm): 85.039% and 85.03%; CFU (mg), number of bacteria in each milligram of the leaves ([2]; treatment concentration 100 nm): 7.44 × 10^5 CFU (mg); Disease index ([2]; treatment concentration 100 nm): 40.53 ± 1.95b; CFU (mg), number of bacteria in each milligram of the leaves [2, 3]: 6.09 × 10^5 CFU (mg); Disease index [2, 3]: 38.31 ± 1.80b; CFU (mg), number of bacteria in each milligram of the leaves [2, 4]: 4.79×10^5 CFU (mg)
